Results from patent US20180002366A1, “4'-SUBSTITUTED NUCLEOSIDE REVERSE TRANSCRIPTASE INHIBITORS” (MERCK SHARP & DOHME CORP., priority 2014, published 2018).

Columns and labels:
[1] = test system: HIV-1 (H9IIIB virus) replication in MT4-GFP cells; assay: Viking Assay: antiviral potency in a multiple round HIV-1 infection assay; format: cell-based; details: Human immunodeficiency virus 1, 10% normal human serum, inhibition of reproductive ratio R0 between ~48 h and ~72 h post-infection, read-out: Viking, IC50 (10% NHS)
Protocol: Assessing Antiviral Potency in a Multiple Round HIV-1 Infection Assay.
Cells were then washed and re-suspended in either RPMI 1640 containing 10% or 50% normal human serum at 1.6×10^5 cells/mL (10% or 50% NHS conditions) or in 100% normal human serum at 2×10^5 cells/mL (100% NHS conditions).
The increase in the number of green cells over ˜24 h period gives the reproductive ratio, R0, which is typically 5-15 and has been shown experimentally to be in logarithmic phase (data not shown). Inhibition of R0 is calculated for each well, and IC50s determined by non-linear 4-parameter curve fitting.

[2] = test system: HIV-1 (H9IIIB virus) replication in MT4-GFP cells; assay: Antiviral Persistence assay; details: for Fold shift IC50 72 h/24 h: ratio of IC50 72 h to IC50 24 h
Protocol: HIV-1 replication was monitored using MT4-gag-GFP clone D3 (hereafter designate MT4-GFP), which are MT-4 cells modified to harbor a GFP reporter gene, the expression of which is dependent on the HIV-1 expressed proteins tat and rev. Productive infection of an MT4-GFP cell with HIV-1 results in GFP expression approximately 24 h post-infection. MT4-GFP cells were maintained at 37° C./5% CO2/90% relative humidity in RPMI 1640 supplemented with 10% fetal bovine serum, 100 U/mL penicillin/streptomycin, and 400 μg/mL G418 to maintain the reporter gene. For 72 hour time point persistence assay (72 h plate) and 24 hour time point control assay (24 h plate), MT4-GFP cells were washed and re-suspended in RPMI 1640 containing 10% normal human serum at either 1.6×10^5 or 2.4×10^5 cells/mL (10% NHS). Compound plates were prepared by dispensing compounds dissolved in DMSO into wells of 384 well cell culture plates ([…]) using an ECHO acoustic dispenser. Each compound was tested in a 10 point serial 3-fold dilution (typical final concentrations: 4.2 μM-0.21 nM). Controls included no inhibitor (DMSO only) and a combination of three antiviral agents (efavirenz, indinavir, and an integrase strand transfer inhibitor at final concentrations of 4 μM each). Cells were added (50 μL/well) to compound plates and were incubated at 37° C./5% CO2/90% relative humidity for 24 hours. The cells were washed with 5×40 uL of RPMI 1640 supplemented with 10% NHS and 100 U/mL penicillin/streptomycin. 72 h plate was return back to 37° C. incubator for additional 48 hour incubation. 40 uL of the cells from each well of the 24 h plate or the 72 h plate (after 48 hour incubation post wash) were transferred to a poly-D-lysine coated plate. The cells were then infected with H9IIIB virus at an approximate multiplicity of infection of 0.1 in the same incubation conditions.
Infected cells were quantified at ˜24 h post-infection, by counting the number of green cells in each well using an Acumen eX3 scanner. IC50s for the compounds in Table 4 were determined by non-linear 4-parameter curve fitting.
The antiviral persistence assay is meant to assess for the persistence of antiviral activity upon removal of the nucleoside. […] The publication AIDS Research and Therapy, 2009, 6:5, highlights the value of antiviral persistence.

HIV-1 RT enzyme = molecular target: T1, HIV-1 RT enzyme (Human immunodeficiency virus type 1 group M subtype B, UniProt P03366); assay: RT Polymerase Assay; format: biochemical
T1 construct: Full-length wild-type and 2 mutant RT proteins were expressed in Escherichia coli BL21(DE3) cells and purified; made in house; host or cells: Escherichia coli BL21(DE3)
Protocol: Full-length wild-type and 2 mutant RT proteins were expressed in Escherichia coli BL21(DE3) cells and purified. Briefly, the heterodimeric nucleic acid substrate used in the HIV-1 RT polymerase reactions was generated by annealing biotinylated DNA primer to a 500 nucleotide RNA template. The HIV-1 RT enzyme (final concentration of […]) was combined with an inhibitor compound or DMSO (10% DMSO in the final reaction mixture) in assay buffer (62.5 mM Tris-HCl, pH 7.8, 1.25 mM dithiothreitol, 7.5 mM MgCl2, 100 mM KCl, 0.03% CHAPS, 0.125 mM EGTA). This mixture was pre-incubated for 30 minutes at room temperature in microtiter plates. The polymerization reaction was initiated by the addition of template/primer substrate (final concentration: 16.6 nM) and dNTPs (final concentration: 2 μM dCTP, dGTP, dATP, and 66.6 nM Ru-dUTP). After 90 min of incubation at 37° C., reactions were quenched by the addition of EDTA (25 mM). The resulting mixture was incubated for an additional 5 minutes at room temperature followed by transferring the solution (50 μL) to blocked avidin plate from Meso Scale Discovery (MSD). The mixtures were incubated at room temperature for 60 min prior to the quantification of the reaction product via an ECL 6000 imager instrument.

[3] = Human immunodeficiency virus 1, 24 h, read-out: IC50 24 h (nM)
[4] = Human immunodeficiency virus 1, read-out: IC50 72 h (nM)

Structure (SMILES) | IC50 [1] [nM] | IC50 [2, 3] [nM] | IC50 [2, 4] [nM] | Fold shift IC50 72 h/24 h [2] | IC50 (HIV-1 RT enzyme) [nM]
Cc1cn([C@H]2C[C@H](N=[N+]=[N-])[C@@H](CO)O2)c(=O)[nH]c1=O [AZT, 3′-azido-3′-deoxythymidine, reference compound] | 37 | 37 | 4710 | 127 | 
C#C[C@]1(CO)O[C@@H](n2cc(C)c3c(N)ncnc32)C[C@@H]1O [Example 3, (2R,3S,5R)-5-(4-amino-5-methyl-7H-pyrrolo[2,3-d]pyrimidin-7-yl)-2-ethynyl-2-(hydroxymethyl)tetrahydrofuran-3-ol] | 485 | 470 | 2500 | 5.3 | 
C#C[C@]1(CO)O[C@@H](n2cc(Br)c3c(N)ncnc32)C[C@@H]1O [Example 5, (2R,3S,5R)-5-(4-amino-5-bromo-7H-pyrrolo[2,3-d]pyrimidin-7-yl)-2-ethynyl-2-(hydroxymethyl)tetrahydrofuran-3-ol] | 209 | 22000 | > 42000 | >1.9 | 
C#C[C@]1(CO)O[C@@H](n2cc(Cl)c3c(N)ncnc32)C[C@@H]1O [Example 6, (2R,3S,5R)-5-(4-amino-5-chloro-7H-pyrrolo[2,3-d]pyrimidin-7-yl)-2-ethynyl-2-(hydroxymethyl)tetrahydrofuran-3-ol] | 128 | 99 | 970 | 9.8 | 
C#C[C@]1(CO)O[C@@H](n2cc(I)c3c(N)ncnc32)C[C@@H]1O [Example 7, (2R,3S,5R)-5-(4-amino-5-iodo-7H-pyrrolo[2,3-d]pyrimidin-7-yl)-2-ethynyl-2-(hydroxymethyl)tetrahydrofuran-3-ol] | 1030 | 17000 | 17000 | 1 | 
N#C[C@]1(CO)O[C@@H](n2ccc3c(N)ncnc32)C[C@@H]1O [Example 10, (2R,3S,5R)-5-(4-amino-7H-pyrrolo[2,3-d]pyrimidin-7-yl)-3-hydroxy-2-(hydroxymethyl)tetrahydrofuran-2-carbonitrile] | 128 | 170 | 1800 | 10.5 | 
C#C[C@]1(COP(=O)(O)OP(=O)(O)OP(=O)(O)O)O[C@@H](n2ccc3c(N)ncnc32)C[C@@H]1O [Example 13, ammonium ((2R,3S,5R)-5-(4-amino-7H-pyrrolo[2,3-d]pyrimidin-7-yl)-2-ethynyl-3-hydroxytetrahydrofuran-2-yl)methyl triphosphate] |  |  |  |  | 933
C#C[C@]1(COP(=O)(O)OP(=O)(O)OP(=O)(O)O)O[C@@H](n2cc(F)c3c(N)ncnc32)C[C@@H]1O [Example 14, ammonium ((2R,3S,5R)-5-(4-amino-5-fluoro-7H-pyrrolo[2,3-d]pyrimidin-7-yl)-2-ethynyl-3-hydroxytetrahydrofuran-2-yl)methyl triphosphate] |  |  |  |  | 210
C#C[C@]1(COP(=O)(O)OP(=O)(O)OP(=O)(O)O)O[C@@H](n2cc(C)c3c(N)ncnc32)C[C@@H]1O [Example 15, ammonium (2R,3S,5R)-5-(4-amino-5-methyl-7H-pyrrolo[2,3-d]pyrimidin-7-yl)-2-ethynyl-3-hydroxytetrahydrofuran-2-yl)methyl triphosphate] |  |  |  |  | 6240
C#C[C@]1(COP(=O)(O)OP(=O)(O)OP(=O)(O)O)O[C@@H](n2ccc3c(N)nc(Cl)nc32)C[C@@H]1O [Example 16, bis-triethylammonium ((2R,3S,5R)-5-(4-amino-2-chloro-7H-pyrrolo[2,3-d]pyrimidin-7-yl)-2-ethynyl-3-hydroxytetrahydrofuran-2-yl)methyl triphosphate] |  |  |  |  | 1820
C#C[C@]1(COP(=O)(O)OP(=O)(O)OP(=O)(O)O)O[C@@H](n2cc(Cl)c3c(N)ncnc32)C[C@@H]1O [Example 17, ammonium ((2R,3S,5R)-5-(4-amino-5-chloro-7H-pyrrolo[2,3-d]pyrimidin-7-yl)-2-ethynyl-3-hydroxytetrahydrofuran-2-yl)methyl triphosphate] |  |  |  |  | 842
N#C[C@]1(COP(=O)(O)OP(=O)(O)OP(=O)(O)O)O[C@@H](n2ccc3c(N)ncnc32)C[C@@H]1O [Example 18, bis-triethylammonium ((2R,3S,5R)-5-(4-amino-7H-pyrrolo[2,3-d]pyrimidin-7-yl)-2-cyano-3-hydroxytetrahydrofuran-2-yl)methyl triphosphate] |  |  |  |  | 4150
C#C[C@]1(COP(=O)(O)OP(=O)(O)OP(=O)(O)O)O[C@@H](c2ccc3c(N)ncnn23)C[C@@H]1O [Example 19, ammonium ((2R,3S,5R)-5-(4-aminopyrrolo[2,1-f][1,2,4]triazin-7-yl)-2-ethynyl-3-hydroxytetrahydrofuran-2-yl)methyl triphosphate] |  |  |  |  | 3540
C#C[C@]1(COP(=O)(O)OP(=O)(O)OP(=O)(O)O)O[C@@H](c2cnn3c(N)ncnc23)C[C@@H]1O [Example 20, ammonium ((2R,3S,5R)-5-(4-aminopyrazolo[1,5-a][1,3,5]triazin-8-yl)-2-ethynyl-3-hydroxytetrahydrofuran-2-yl)methyl triphosphate] |  |  |  |  | 1290
C#C[C@]1(COP(=O)(O)OP(=O)(O)OP(=O)(O)O)O[C@@H](c2cnc3c(N)ncnn23)C[C@@H]1O [Example 21, ammonium ((2R,3S,5R)-5-(4-aminoimidazo[2,1-f][1,2,4]triazin-7-yl)-2-ethynyl-3-hydroxytetrahydrofuran-2-yl)methyl triphosphate] |  |  |  |  | 905
